Reference: BindingDB's records for doi:10.1111/cbdd.12779 (Ferdowsi University of Mashhad, 2016)
Where “and” joins values, the source holds several entries; their conditions need not be identical. Equal values may be shown once.

Each compound was assayed against T1, Seed linoleate 13S-lipoxygenase-1 (Glycine max, UniProt P08170) (assay: Lipo-oxygenase Inhibitory Assay). Conditions: pH 7; 25 °C.
T1 sequence (P08170 whole entry): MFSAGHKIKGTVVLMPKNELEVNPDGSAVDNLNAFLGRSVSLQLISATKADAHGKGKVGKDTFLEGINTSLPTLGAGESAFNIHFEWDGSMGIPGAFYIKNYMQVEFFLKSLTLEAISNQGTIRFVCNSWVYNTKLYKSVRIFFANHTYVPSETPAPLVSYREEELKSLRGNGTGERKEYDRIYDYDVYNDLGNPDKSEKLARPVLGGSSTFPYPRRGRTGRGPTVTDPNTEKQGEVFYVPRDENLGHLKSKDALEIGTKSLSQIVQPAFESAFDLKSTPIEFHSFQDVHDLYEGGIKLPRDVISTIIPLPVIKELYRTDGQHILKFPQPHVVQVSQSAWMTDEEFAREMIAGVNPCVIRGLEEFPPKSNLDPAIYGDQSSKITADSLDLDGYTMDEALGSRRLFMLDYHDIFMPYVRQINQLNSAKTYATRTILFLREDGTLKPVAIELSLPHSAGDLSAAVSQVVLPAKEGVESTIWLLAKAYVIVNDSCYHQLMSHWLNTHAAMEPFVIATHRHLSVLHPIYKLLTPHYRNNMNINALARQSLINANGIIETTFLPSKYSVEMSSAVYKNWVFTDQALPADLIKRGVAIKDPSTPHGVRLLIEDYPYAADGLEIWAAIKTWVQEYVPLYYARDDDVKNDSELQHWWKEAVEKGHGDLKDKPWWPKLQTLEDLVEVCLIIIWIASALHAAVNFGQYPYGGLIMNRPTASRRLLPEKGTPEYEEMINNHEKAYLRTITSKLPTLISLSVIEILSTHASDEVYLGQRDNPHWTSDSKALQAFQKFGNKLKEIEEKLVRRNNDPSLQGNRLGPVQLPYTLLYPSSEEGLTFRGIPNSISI
Experimental: Solution A was 50 mm DMAB in an 100 mm phosphate buffer (pH 7.0). Solution B was a mixture of 10 mm MBTH (3 mL) and hemoglobin (5 mg/mL, 3 mL) in 50 mm phosphatebuffer at pH 5.0 (25 mL). A linoleic acid solution was prepared by mixing 5 mg of linoleic acid with 50 mg Tween-20 in 3 mL water and then diluted with KOH 100 mmto a final volume of 5 mL. In the standard assay, the sample in ethanol (25 uL), SLO (EC 1,13,11,12; 4000 units/mL; 25 uL) and phosphate buffer, pH 7.0 (50 mm; 900 uL), were mixed in a test-tube and preincubation was carried out for 5 min at room temperature. A control test was done with the same volume of ethanol. Afterthe preincubation, linoleic acid solution (50 uL) was added to start the peroxidation reaction, and, 7 min later, solution A (270 uL) and then solution B (130 uL) were added to start the color formation. Further, 5 min later, 200 uL of a 2% SDS solution was added to terminate the reaction.
Work on C=CCc1c(OC)cccc1OC [2-Allyl-1,3-dimethoxybenzene (6)] yielded an IC50 of 53.2 µM. In the case of COc1cc(C)cc(OC)c1C/C=C(\C)CCC=C(C)C [(E)-2-(3,7-Dimethylocta-2,6-dien-1-yl)-1,3-dimethoxy-5-methylbenzene (10)], the IC50 is reported as 5.3 µM. C=CCc1ccc(OC)c(OC)c1 [METHYLEUGENOL] gave an IC50 of 33.3 µM. Work on COc1cc(C)cc(OC)c1C/C=C(\C)CC/C=C(\C)CCC=C(C)C [1,3-Dimethoxy-5-methyl-2-((2E,6E)-3,7,11-trimethyldodeca-2,6,10-trien-1-yl)benzene (11)] yielded an IC50 of 0.52 µM. For C=CCc1c(OC)cc(C)cc1OC [2-Allyl-1,3-dimethoxy-5-methylbenzene (8)], the IC50 was 30.5 µM. Compound C=CCc1cccc(OC)c1OC [1,2-dimethoxy-3-(prop-2-en-1-yl)benzene (3)] has an IC50 of 128 µM. For C=CCc1ccc(OC)cc1OC [1-Allyl-2,4-dimethoxybenzene (5)], the IC50 was 31.4 µM and 103 µM. With C=CCc1cc(OC)cc(OC)c1 [1-Allyl-3,5-dimethoxybenzene (2)] the IC50 was 43.2 µM. For COc1cc(C)cc(OC)c1CC=C(C)C [1,3-Dimethoxy-5-methyl-2-(3-methylbut-2-en-1-yl)benzene (9)], the IC50 was 7.6 µM. In the case of Cc1nc(N2CCN(C)CC2)nc2c1Nc1ccccc1S2 [4-MMPB], the IC50 is reported as 22.6 µM. In the case of C=CCc1c(OC)cc(OC)cc1OC [2-Allyl-1,3,5-trimethoxybenzene (7)], the IC50 is reported as 83.2 µM.
